In the supplement of paper PMC4862054:

tested on: MDA-MB-436; test: normalised response (% of control), CellTiter-Glo; higher = more viable cells (100 = DMSO, 0 = benzethonium chloride kill control); conditions: incubation time: 72 h
Method: (§1)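 DSRT, 72 h incubation, CellTox Green / CellTiter-Glo readout. Signal is normalised to DMSO and benzethonium chloride controls. Value is the normalised response at the highest dose.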

**Q.** `N#CCNC(=O)c1ccc(-c2ccnc(Nc3ccc(N4CCOCC4)cc3)n2)cc1` [Momelotinib] (10000 nM) was tested. Which normalised response did it give?
**A.** 71%

**Q.** How did the normalised response turn out when `CC(=O)Nc1ccc(C(=O)Nc2ccccc2N)cc1` [Tacedinaline] (1000 nM) was run?
**A.** 95%

**Q.** Which normalised response does the source give for `O=C(O)c1ccc(-c2c[nH]c3ncc(-c4ccccc4)cc23)cc1C1CCCC1` (10000 nM) here?
**A.** 84.2%

**Q.** How did the normalised response turn out when `COc1cc2ncnc(Nc3ccc(F)c(Cl)c3)c2cc1NC(=O)/C=C/CN1CCCCC1` [Dacomitinib] (1000 nM) was run?
**A.** 84.4%

tested on: MDA-MB-453; test: as above; conditions: incubation time: 72 h
Method: as §1

**Q.** `CS(=O)(=O)c1ccc(C2=C(c3ccccc3)C(=O)OC2)cc1` [Rofecoxib] (10000 nM) was tested. Which normalised response did it give?
**A.** 98.6%

**Q.** `CCC(C)(C)C(=O)O[C@H]1C[C@@H](C)C=C2C=C[C@H](C)[C@H](CC[C@@H]3C[C@@H](O)CC(=O)O3)[C@H]21` [Simvastatin] (10000 nM) was tested. Which normalised response did it give?
**A.** 93.3%

**Q.** Which normalised response does the source give for `CC(C)Cn1cnc2c(N)nc3ccccc3c21` [Imiquimod] (2500 nM) here?
**A.** 105%

**Q.** How did the normalised response turn out when `N#CCNC(=O)c1ccc(-c2ccnc(Nc3ccc(N4CCOCC4)cc3)n2)cc1` [Momelotinib] (10000 nM) was run?
**A.** 104%

**Q.** How did the normalised response turn out when `CC(=O)Nc1ccc(C(=O)Nc2ccccc2N)cc1` [Tacedinaline] (1000 nM) was run?
**A.** 98.7%

**Q.** With `O=C(O)c1ccc(-c2c[nH]c3ncc(-c4ccccc4)cc23)cc1C1CCCC1` (10000 nM) as the molecule, how does the normalised response read?
**A.** 105%

**Q.** Which normalised response does the source give for `COc1cc2ncnc(Nc3ccc(F)c(Cl)c3)c2cc1NC(=O)/C=C/CN1CCCCC1` [Dacomitinib] (1000 nM) here?
**A.** 56.2%

tested on: DU-4475; test: as above; conditions: incubation time: 72 h
Method: as §1

**Q.** With `CS(=O)(=O)c1ccc(C2=C(c3ccccc3)C(=O)OC2)cc1` [Rofecoxib] (10000 nM) as the molecule, how does the normalised response read?
**A.** 100%

**Q.** Which normalised response does the source give for `CCC(C)(C)C(=O)O[C@H]1C[C@@H](C)C=C2C=C[C@H](C)[C@H](CC[C@@H]3C[C@@H](O)CC(=O)O3)[C@H]21` [Simvastatin] (10000 nM) here?
**A.** 94.2%

**Q.** `CC(C)Cn1cnc2c(N)nc3ccccc3c21` [Imiquimod] (2500 nM) was tested. Which normalised response did it give?
**A.** 103%

**Q.** `N#CCNC(=O)c1ccc(-c2ccnc(Nc3ccc(N4CCOCC4)cc3)n2)cc1` [Momelotinib] (10000 nM) was tested. Which normalised response did it give?
**A.** 64.8%

**Q.** With `CC(=O)Nc1ccc(C(=O)Nc2ccccc2N)cc1` [Tacedinaline] (1000 nM) as the molecule, how does the normalised response read?
**A.** 98%

**Q.** How did the normalised response turn out when `O=C(O)c1ccc(-c2c[nH]c3ncc(-c4ccccc4)cc23)cc1C1CCCC1` (10000 nM) was run?
**A.** 86.2%

**Q.** Which normalised response does the source give for `COc1cc2ncnc(Nc3ccc(F)c(Cl)c3)c2cc1NC(=O)/C=C/CN1CCCCC1` [Dacomitinib] (1000 nM) here?
**A.** 97.8%

tested on: MCF-10A; test: as above; conditions: incubation time: 72 h
Method: as §1

**Q.** `CS(=O)(=O)c1ccc(C2=C(c3ccccc3)C(=O)OC2)cc1` [Rofecoxib] (10000 nM) was tested. Which normalised response did it give?
**A.** 109%

**Q.** Which normalised response does the source give for `CCC(C)(C)C(=O)O[C@H]1C[C@@H](C)C=C2C=C[C@H](C)[C@H](CC[C@@H]3C[C@@H](O)CC(=O)O3)[C@H]21` [Simvastatin] (10000 nM) here?
**A.** 23.9%

**Q.** For `CC(C)Cn1cnc2c(N)nc3ccccc3c21` [Imiquimod] (2500 nM), which normalised response is on record?
**A.** 95%

**Q.** Which normalised response does the source give for `N#CCNC(=O)c1ccc(-c2ccnc(Nc3ccc(N4CCOCC4)cc3)n2)cc1` [Momelotinib] (10000 nM) here?
**A.** 43%

**Q.** For `CC(=O)Nc1ccc(C(=O)Nc2ccccc2N)cc1` [Tacedinaline] (1000 nM), which normalised response is on record?
**A.** 99.7%

**Q.** With `O=C(O)c1ccc(-c2c[nH]c3ncc(-c4ccccc4)cc23)cc1C1CCCC1` (10000 nM) as the molecule, how does the normalised response read?
**A.** 97.1%

**Q.** `COc1cc2ncnc(Nc3ccc(F)c(Cl)c3)c2cc1NC(=O)/C=C/CN1CCCCC1` [Dacomitinib] (1000 nM) was tested. Which normalised response did it give?
**A.** 35.8%

tested on: CAL-85-1; test: as above; conditions: incubation time: 72 h
Method: as §1

**Q.** `CS(=O)(=O)c1ccc(C2=C(c3ccccc3)C(=O)OC2)cc1` [Rofecoxib] (10000 nM) was tested. Which normalised response did it give?
**A.** 100%

**Q.** `CCC(C)(C)C(=O)O[C@H]1C[C@@H](C)C=C2C=C[C@H](C)[C@H](CC[C@@H]3C[C@@H](O)CC(=O)O3)[C@H]21` [Simvastatin] (10000 nM) was tested. Which normalised response did it give?
**A.** 84.4%

**Q.** For `CC(C)Cn1cnc2c(N)nc3ccccc3c21` [Imiquimod] (2500 nM), which normalised response is on record?
**A.** 104%

**Q.** `N#CCNC(=O)c1ccc(-c2ccnc(Nc3ccc(N4CCOCC4)cc3)n2)cc1` [Momelotinib] (10000 nM) was tested. Which normalised response did it give?
**A.** 43.7%

**Q.** Which normalised response does the source give for `CC(=O)Nc1ccc(C(=O)Nc2ccccc2N)cc1` [Tacedinaline] (1000 nM) here?
**A.** 103%

**Q.** `O=C(O)c1ccc(-c2c[nH]c3ncc(-c4ccccc4)cc23)cc1C1CCCC1` (10000 nM) was tested. Which normalised response did it give?
**A.** 99.3%

**Q.** `COc1cc2ncnc(Nc3ccc(F)c(Cl)c3)c2cc1NC(=O)/C=C/CN1CCCCC1` [Dacomitinib] (1000 nM) was tested. Which normalised response did it give?
**A.** 46.8%

tested on: BT-474; test: as above; conditions: incubation time: 72 h
Method: as §1

**Q.** Which normalised response does the source give for `CS(=O)(=O)c1ccc(C2=C(c3ccccc3)C(=O)OC2)cc1` [Rofecoxib] (10000 nM) here?
**A.** 94.5%

**Q.** `CCC(C)(C)C(=O)O[C@H]1C[C@@H](C)C=C2C=C[C@H](C)[C@H](CC[C@@H]3C[C@@H](O)CC(=O)O3)[C@H]21` [Simvastatin] (10000 nM) was tested. Which normalised response did it give?
**A.** 47.2%

**Q.** For `CC(C)Cn1cnc2c(N)nc3ccccc3c21` [Imiquimod] (2500 nM), which normalised response is on record?
**A.** 96%

**Q.** With `N#CCNC(=O)c1ccc(-c2ccnc(Nc3ccc(N4CCOCC4)cc3)n2)cc1` [Momelotinib] (10000 nM) as the molecule, how does the normalised response read?
**A.** 55.8%

**Q.** With `CC(=O)Nc1ccc(C(=O)Nc2ccccc2N)cc1` [Tacedinaline] (1000 nM) as the molecule, how does the normalised response read?
**A.** 95.2%

**Q.** For `O=C(O)c1ccc(-c2c[nH]c3ncc(-c4ccccc4)cc23)cc1C1CCCC1` (10000 nM), which normalised response is on record?
**A.** 86.7%

**Q.** How did the normalised response turn out when `COc1cc2ncnc(Nc3ccc(F)c(Cl)c3)c2cc1NC(=O)/C=C/CN1CCCCC1` [Dacomitinib] (1000 nM) was run?
**A.** 86.8%

tested on: MDA-MB-468; test: as above; conditions: incubation time: 72 h
Method: as §1

**Q.** How did the normalised response turn out when `CS(=O)(=O)c1ccc(C2=C(c3ccccc3)C(=O)OC2)cc1` [Rofecoxib] (10000 nM) was run?
**A.** 113%

**Q.** With `CCC(C)(C)C(=O)O[C@H]1C[C@@H](C)C=C2C=C[C@H](C)[C@H](CC[C@@H]3C[C@@H](O)CC(=O)O3)[C@H]21` [Simvastatin] (10000 nM) as the molecule, how does the normalised response read?
**A.** 83.2%

**Q.** `CC(C)Cn1cnc2c(N)nc3ccccc3c21` [Imiquimod] (2500 nM) was tested. Which normalised response did it give?
**A.** 109%

**Q.** For `N#CCNC(=O)c1ccc(-c2ccnc(Nc3ccc(N4CCOCC4)cc3)n2)cc1` [Momelotinib] (10000 nM), which normalised response is on record?
**A.** 22.2%

**Q.** How did the normalised response turn out when `CC(=O)Nc1ccc(C(=O)Nc2ccccc2N)cc1` [Tacedinaline] (1000 nM) was run?
**A.** 108%

**Q.** `O=C(O)c1ccc(-c2c[nH]c3ncc(-c4ccccc4)cc23)cc1C1CCCC1` (10000 nM) was tested. Which normalised response did it give?
**A.** 57%

**Q.** Which normalised response does the source give for `COc1cc2ncnc(Nc3ccc(F)c(Cl)c3)c2cc1NC(=O)/C=C/CN1CCCCC1` [Dacomitinib] (1000 nM) here?
**A.** 65.3%

tested on: HCC1599; test: as above; conditions: incubation time: 72 h
Method: as §1

**Q.** How did the normalised response turn out when `CS(=O)(=O)c1ccc(C2=C(c3ccccc3)C(=O)OC2)cc1` [Rofecoxib] (10000 nM) was run?
**A.** 100%

**Q.** Which normalised response does the source give for `CCC(C)(C)C(=O)O[C@H]1C[C@@H](C)C=C2C=C[C@H](C)[C@H](CC[C@@H]3C[C@@H](O)CC(=O)O3)[C@H]21` [Simvastatin] (10000 nM) here?
**A.** 103%

**Q.** For `CC(C)Cn1cnc2c(N)nc3ccccc3c21` [Imiquimod] (2500 nM), which normalised response is on record?
**A.** 94.9%

**Q.** `N#CCNC(=O)c1ccc(-c2ccnc(Nc3ccc(N4CCOCC4)cc3)n2)cc1` [Momelotinib] (10000 nM) was tested. Which normalised response did it give?
**A.** 96.8%

**Q.** For `CC(=O)Nc1ccc(C(=O)Nc2ccccc2N)cc1` [Tacedinaline] (1000 nM), which normalised response is on record?
**A.** 120%

**Q.** For `O=C(O)c1ccc(-c2c[nH]c3ncc(-c4ccccc4)cc23)cc1C1CCCC1` (10000 nM), which normalised response is on record?
**A.** 105%

**Q.** How did the normalised response turn out when `COc1cc2ncnc(Nc3ccc(F)c(Cl)c3)c2cc1NC(=O)/C=C/CN1CCCCC1` [Dacomitinib] (1000 nM) was run?
**A.** 105%

tested on: HDQ-P1; test: as above; conditions: incubation time: 72 h
Method: as §1

**Q.** `CS(=O)(=O)c1ccc(C2=C(c3ccccc3)C(=O)OC2)cc1` [Rofecoxib] (10000 nM) was tested. Which normalised response did it give?
**A.** 99.8%

**Q.** For `CCC(C)(C)C(=O)O[C@H]1C[C@@H](C)C=C2C=C[C@H](C)[C@H](CC[C@@H]3C[C@@H](O)CC(=O)O3)[C@H]21` [Simvastatin] (10000 nM), which normalised response is on record?
**A.** 65%

**Q.** `CC(C)Cn1cnc2c(N)nc3ccccc3c21` [Imiquimod] (2500 nM) was tested. Which normalised response did it give?
**A.** 103%

**Q.** How did the normalised response turn out when `N#CCNC(=O)c1ccc(-c2ccnc(Nc3ccc(N4CCOCC4)cc3)n2)cc1` [Momelotinib] (10000 nM) was run?
**A.** 87.1%

**Q.** How did the normalised response turn out when `CC(=O)Nc1ccc(C(=O)Nc2ccccc2N)cc1` [Tacedinaline] (1000 nM) was run?
**A.** 98.5%

**Q.** Which normalised response does the source give for `O=C(O)c1ccc(-c2c[nH]c3ncc(-c4ccccc4)cc23)cc1C1CCCC1` (10000 nM) here?
**A.** 107%

**Q.** `COc1cc2ncnc(Nc3ccc(F)c(Cl)c3)c2cc1NC(=O)/C=C/CN1CCCCC1` [Dacomitinib] (1000 nM) was tested. Which normalised response did it give?
**A.** 68.1%

tested on: MFM-223; test: as above; conditions: incubation time: 72 h
Method: as §1

**Q.** For `CS(=O)(=O)c1ccc(C2=C(c3ccccc3)C(=O)OC2)cc1` [Rofecoxib] (10000 nM), which normalised response is on record?
**A.** 102%
